Here are results for six compounds from patent publication US9228998B2, “Drug monitoring methods using the promyelocytic leukemia protein as a redox sensor” (Institut National de la Sante et de la Recherche Medicale …, priority 2010, dated 2016).

Test [1] concerns the target T1, PML (Homo sapiens, UniProt P29590).
T1 construct: expressed in transfected cells; host or cells: CHO (transient)
T1 sequence (P29590 1-641 isoform P29590-9): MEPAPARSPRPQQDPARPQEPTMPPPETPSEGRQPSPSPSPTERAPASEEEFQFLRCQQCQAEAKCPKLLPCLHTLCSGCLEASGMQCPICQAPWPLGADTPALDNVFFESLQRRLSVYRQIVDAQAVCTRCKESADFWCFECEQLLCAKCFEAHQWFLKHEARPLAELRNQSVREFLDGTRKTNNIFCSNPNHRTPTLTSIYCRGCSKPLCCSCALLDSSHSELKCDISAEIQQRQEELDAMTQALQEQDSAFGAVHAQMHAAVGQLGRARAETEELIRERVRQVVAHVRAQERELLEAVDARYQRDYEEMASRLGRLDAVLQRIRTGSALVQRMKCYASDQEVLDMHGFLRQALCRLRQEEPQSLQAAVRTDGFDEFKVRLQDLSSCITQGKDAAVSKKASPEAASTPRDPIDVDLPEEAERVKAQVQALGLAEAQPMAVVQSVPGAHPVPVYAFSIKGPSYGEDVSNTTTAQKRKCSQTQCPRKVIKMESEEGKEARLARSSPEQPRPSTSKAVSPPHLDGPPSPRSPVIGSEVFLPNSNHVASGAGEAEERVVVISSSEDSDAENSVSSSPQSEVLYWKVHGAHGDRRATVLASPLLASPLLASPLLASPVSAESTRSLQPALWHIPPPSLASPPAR
The experiment in a line: Western-blot analysis under non-reducing conditions of PML-transfected CHO cells (disulfide-linked PML complexes). In kind it is cell-based. Details: amounts of covalent PML multimers: concentration or dose not given beside the values. As to conditions: for amounts of covalent PML multimers: short exposure, CHO cells transiently overexpressing PML; for covalent PML homodimers: transiently PML- or PML3KR-transfected cells, non-reducing conditions; for formation of covalent multimers: pretreatment, transiently PML-transfected CHO cells. The procedure:
(§1) HeLa, MRC5, CHO, COS, SaOS and Pml−/− MEF cells were cultured in 10% Fetal calf serum DMEM medium (Gibco). Plasmid transfections were performed in CHO or COS with Effectene transfection reagent (Qiagen). Stable CHO cell lines, expressing the PML isoform, or its mutants, were obtained by cotransfection of pSG5-PMLΔSIM, pSG5-3K/RΔSIM, pSG5-C212A or pSG5-B1 with the Dsp-Hygro vector; selected for 2 weeks in […] hygromycin-containing media. Clones were selected for similar PML expression levels. PML WT, PML C60A, PMLΔCC and PML 3K/R stable expressing cell lines were described previously^25. MRC5 or SaOS were grown on coverslides and treated with 400 U/ml IFNg for 48 h and IFNa for 24 h to induce PML expression. Primary mouse APL blasts were obtained from serially transplanted APLs^16 and then cultured in RPMI medium, 10% FCS supplemented with IL-3, IL-6 and SCF (Gibco). Infection of immortalized pml−/− MEFs or primary progenitors was performed with retroviruses produced by CaCl2 transfection of Plat-E cells by with the MSCV-PML/RARA retroviral vector^16. Pml−/− or +/+ MEF cells were similarly transduced with MSCV-PML or PML mutants.
(§2) As2O3 (Fluka) treatments were performed at 1 mM or 10 mM for 1 h. H2O2 from SIGMA-Aldrich was performed for 30 min at 0.1, 1 or 10 mM as indicated, Phenylarsine oxide (PAO) was purchased from SIGMA, solubilized at 50 mg/ml in DMSO and used at 0.1 mM, 1 mM or 10 mM for 1 h, CdCl2 from Flucka, was used at a final concentration of 10 mM. Cells were treated with 10 mM Lactacystin (Calbiochem) overnight, and with 50 mg/ml ready-made cycloheximide (SIGMA) as indicated. Pre-treatments with 100 mM N-ethyl maleimide (NEM) (SIGMA) for 30 min were carried out before adding As2O3 or H2O2. TC-FlAsH (FlAs) was from Molecular Probes; cells growing on coverslides were treated with 1 mM for 1 h, washed in PBS before PFA fixation. Dithiarsolan-biotin conjugate (arsenic-biotin) was kindly given by Kenneth L. Kirk^53, solubilized in DMSO to a 5 mM stock solution, and used on cell culture at 10 mM for 1 h.
Cell lysates were resolved on 7%, 3 to 10% gradient or 12% SDS-PAGE gels and transferred onto nitrocellulose membranes. Detection was performed with the chemi-luminescent substrate SuperSignal WestPico (Pearce), using previously described home made mouse and chicken anti-hPML antibodies^15,25, the PML isoform-specific antibodies were characterized previously^29. For analysis under non-reducing conditions, b-Mercapto-Ethanol or DTT was omitted from the standard Laemmli buffer. In situ nuclear matrix was prepared as for immunofluorescence, but finally resuspended in Laemmli buffer. Purifications of 6M Guanidium-HCl denatured (His×6)-tagged proteins were done with Ni-NTA-agarose from Qiagen, as previously^25. The purification of the arsenic-bound proteins were performed from As-biotin treated CHO-PML or transiently pSG5-PML wt or C212A transfected COS cells. Cells were lysed in 2% SDS-containing RIPA with Protease Inhibitor Cocktail (PIC) (Roche Applied Science), denatured at 95° C. for 5 min to release nuclear matrix-associated PML. Streptavidin-agarose (Molecular Probes) was added to the […] lysates for 30 min to 1 h, washed three times in RIPA and arsenic bound proteins were eluted in Laemmli buffer.
Intermolecular disulfide bonds were previously implicated in stabilization of the nuclear matrix. […] We then compared total and nuclear matrix extracts from transiently transfected CHO cells under non-reducing conditions and observed that the matrix fraction was dramatically enriched in covalent PML dimers.

The target in test [2] is T2, PML NBs (Homo sapiens, UniProt P29590).
T2 construct: expressed in transfected cells
T2 sequence (P29590 1-641 isoform P29590-9): T1 sequence (P29590 1-641 isoform P29590-9)
In words: NB formation in CHO-PML xenografts in nude mice. In kind it is in vivo. As to conditions: treatment of nude mice bearing CHO-PML xenografts. The procedure:
(§3) Mouse experiments were repeated 3 times. Animal handling was done according to the guidelines of institutional animal care committees, using protocols approved by “Comité Régional d'Ethique Expérimentation Animale (CREEA) no 4”. 25 mg/kg Paraquat (SIGMA) was daily intraperitoneally injected in PML/RARA and PML/RARA-S77A leukemic mice^17 (to be fully described elsewhere). In vivo imaging was performed using a Xenogen IVIS100 facility to ensure similar tumor mass pre-treatment. Mice were treated with 150 mg/kg for 1 h before bone marrow cytospins (from FVB/NICO) and […] tumor cryosections (NUDE/SWISS) immuno-histochemistry; CHO-PML xenografts were performed as before^42.
(§4) Disulfide bonds are oxidant-sensitive. […] As ROS status is profoundly altered in cell culture, we examined NBs in vivo in basal conditions and after acute induction of ROS. […] Thus, oxidation-triggered disulfide bonds in PML regulate its partitioning between the nucleoplasm and nuclear matrix associated NBs.
(§5) We next investigated whether oxidants enhance disulfide-bound PML multimerization. […] We thus examined whether paraquat, an acute ROS inducer, would regulate NB formation in vivo, a setting where ROS levels are likely more controlled.

Test [3] addresses T3, endogenous murine PML (Mus musculus, UniProt Q60953).
T3 construct: from tissue; host or cells: mouse bone marrow cells (cytospins, FVB/NICO mice)
T3 sequence (Q60953 1-885): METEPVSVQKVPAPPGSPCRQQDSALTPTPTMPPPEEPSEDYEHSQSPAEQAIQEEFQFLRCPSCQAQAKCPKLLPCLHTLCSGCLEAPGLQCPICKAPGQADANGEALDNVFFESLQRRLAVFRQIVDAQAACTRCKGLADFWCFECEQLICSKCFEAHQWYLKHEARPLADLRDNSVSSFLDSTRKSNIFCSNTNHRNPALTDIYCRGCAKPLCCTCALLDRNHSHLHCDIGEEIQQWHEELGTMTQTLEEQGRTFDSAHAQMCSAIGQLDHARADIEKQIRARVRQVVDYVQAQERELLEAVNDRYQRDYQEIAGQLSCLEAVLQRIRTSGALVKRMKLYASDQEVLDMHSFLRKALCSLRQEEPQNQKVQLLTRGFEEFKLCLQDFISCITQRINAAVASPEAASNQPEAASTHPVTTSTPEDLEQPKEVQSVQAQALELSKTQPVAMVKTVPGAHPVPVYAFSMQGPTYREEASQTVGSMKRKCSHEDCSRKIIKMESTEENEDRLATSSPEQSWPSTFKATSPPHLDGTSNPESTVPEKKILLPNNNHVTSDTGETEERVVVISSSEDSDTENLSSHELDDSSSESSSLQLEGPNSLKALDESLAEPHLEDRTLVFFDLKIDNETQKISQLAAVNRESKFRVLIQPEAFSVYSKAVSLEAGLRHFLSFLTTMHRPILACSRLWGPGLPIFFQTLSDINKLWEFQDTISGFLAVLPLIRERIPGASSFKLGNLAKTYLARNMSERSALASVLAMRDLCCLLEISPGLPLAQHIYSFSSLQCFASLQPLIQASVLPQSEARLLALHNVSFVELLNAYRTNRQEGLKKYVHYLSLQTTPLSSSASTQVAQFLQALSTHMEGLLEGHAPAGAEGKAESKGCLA
In words: NB formation by endogenous murine PML in bone marrow cells of treated mice. In kind it is in vivo. As to conditions: normal bone marrow cells of treated mice. The procedure: as §3, §4, §5

Test [4] deals with T2, PML NBs. The experiment in a line: PML NBs in cultured cells (CHO-PML), immunofluorescence. In kind it is cell-based. The procedure: as §1, §2
Immunofluorescence, electronic microscopy and antibodies were previously described^15. In situ nuclear matrix preparations were prepared as described^1. Confocal analyses were performed on a LSM510 Meta laser microscope (Carl Zeiss MicroImaging, Inc.) with a plan apochromat 63X N.A.1.4 oil immersion objective and increased resolution images were obtained with deconvolution software (Autodeblur, Image Quant) using blind iterative algorithms.

Take `O=[As]O[As]=O` (centres unmarked) [As2O3]: in test [1], the “amounts of covalent PML multimers” value is listed as “massively increased” and the “covalent PML homodimers” value was “dramatic increase”. In addition, the “NB formation in CHO-PML xenografts” value in test [2] was “dramatic increase in NB formation”. Further, the “NB formation by endogenous murine PML” value in test [3] was “Enhanced NB formation”.

With `[Cl][Cd][Cl]` [CdCl2], the “amounts of covalent PML multimers” value in test [1] is “massively increased”. The “NBs in cultured cells with strong oxidants” value in test [4] is “disrupt NBs”.

With `OO` [H2O2], in test [1], the “amounts of covalent PML multimers” value is listed as “massively increased” and the “covalent PML homodimers” value is “dramatic increase”. In test [4], the “NBs in cultured cells with strong oxidants” value was “disrupt NBs”.

Regarding `CC(=O)N[C@@H](CS)C(=O)O` [NAC, N-acetyl cysteine], the “abundance of the high molecular weight PML forms” value in test [1] (pretreatment of CHO cells prior to PML transfection) is given as “dramatic decrease”. In addition, in test [1], the “formation of covalent multimers” value is “abrogated”. In test [4] (CHO-PML cells cultured for 10 days with the ROS scavenger), the “basal NB formation” value is “lost basal NB formation”. Also, the NBs after wash-out entry in test [4] (CHO-PML cells, 3 day wash-out after 10 days culture) was “NBs were restored”.

For the compound `CCN1C(=O)C=CC1=O` [NEM, N-ethyl maleimide], the “formation of covalent multimers” value in test [1] is recorded as “abrogated”. In addition, in test [1] (thiol alkylator added with As2O3 or H2O2), the “As2O3 or H2O2-enhanced homodimer formation” value is “abrogated”. In addition, the “basal PML NBs” value in test [4] (untreated cells / CHO-PML cells, 1 hr treatment) is given as “disrupted basal PML NBs”.

For `C[n+]1ccc(-c2cc[n+](C)cc2)cc1` [Paraquat], the “NB formation in CHO-PML xenografts” value in test [2] is recorded as “dramatic increase in NBs”; in test [2] (listed as paraquat), “dramatic increase in NB formation”. Moreover, the “NB formation by endogenous murine PML” value in test [3] is listed as “Identical results”; in test [3] (listed as paraquat), “Enhanced NB formation”.
